# Tests used:
# [1] = Inhibitory activity of against carboxypeptidase A (CPA)
# [2] = molecular target: T1, Carboxypeptidase A1 (Homo sapiens) (UniProt P15085); assay: Inactivation potency of compound against carboxypeptidase A (CPA)
# T1 sequence (whole entry): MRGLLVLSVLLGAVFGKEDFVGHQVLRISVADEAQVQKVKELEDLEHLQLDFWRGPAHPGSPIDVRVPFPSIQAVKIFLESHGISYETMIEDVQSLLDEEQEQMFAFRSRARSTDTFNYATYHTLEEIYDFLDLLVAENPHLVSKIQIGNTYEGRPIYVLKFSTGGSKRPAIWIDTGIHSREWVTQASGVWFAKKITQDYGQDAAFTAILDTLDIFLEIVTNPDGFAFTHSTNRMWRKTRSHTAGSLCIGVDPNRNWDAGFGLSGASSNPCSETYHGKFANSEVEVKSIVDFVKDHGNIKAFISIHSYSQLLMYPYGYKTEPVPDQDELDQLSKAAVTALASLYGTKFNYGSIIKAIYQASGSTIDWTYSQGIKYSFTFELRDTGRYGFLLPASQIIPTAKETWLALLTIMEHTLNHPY
# [3] = Partition ratio (Kcat/Kinact) was calculated
# [4] = Kinetic constant against carboxypeptidase A (CPA)
Ki [1] [µM],K inact/Ki [2] [M⁻¹ s⁻¹],Ratio [3],K inact [4] [min⁻¹],Structure (SMILES)
1650,1.52,94,0.115,O=C1N[C@@H]([C@@H](Cc2ccccc2)C(=O)O)CO1
900,1.39,120,0.075,O=C1N[C@H]([C@H](Cc2ccccc2)C(=O)O)CO1

# From ChEMBL document CHEMBL1130784, “Irreversible inhibition of zinc-containing protease by oxazolidinone derivatives. Novel inactivation chemistry” (Bioorg Med Chem Lett, 1998)
